Patent publication US20210198284A1, “GOLD COMPOSITIONS AND METHODS OF USE THEREOF” (THE UNIVERSITY OF MASSACHUSETTS, priority 2018, published 2021)

Columns and labels:
[1] = tested on: C. neoformans ATCC 208821; assay: Antifungal MIC; assay type: cell-based; conditions: for MIC: C. neoformans ATCC 208821
[2] = Log P determination (n-octanol/water, FAAS)
Procedure, shortened: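 Shake-flask partition between mutually saturated n-octanol and water; Au in each phase quantified by flame AAS against aqueous Au-standard and n-octanol calibration curves. Compound shaken ~4 h in water then 1 h with octanol, or 3-4 h in both phases then diluted and shaken 1 h; log P = log([oct]/[water]).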

C. albicans ATCC 90028 = assay: Antifungal MIC; assay type: cell-based
A549 cells = assay: Cytotoxicity assay (resazurin); assay type: cell-based; conditions: 20 h, mean±S.E.M. from two independent experiments
Experimental: Sample preparation. The compounds were dissolved in DMSO at 12.8 mg/mL as the stock solutions, except for compounds 9-17, which were directly dissolved in the culture medium at 12.8 mg/mL. The stock solutions were diluted by the culture medium to the testing concentration at 128 μg/mL (compound 9-17 were diluted to 1,280 μg/mL). The solutions were then serially diluted two fold in a 96-well plate and were used in the cytotoxicity assay immediately.
Cell culture and cytotoxicity assay. A549 cells (ATCC CCL-185) were cultured in high glucose DMEM (Sigma-Aldrich, D6429) supplemented with 10% FBS, 1% penicillin-streptomycin solution (Sigma-Aldrich, P4333), 1% gentamicin solution (Sigma-Aldrich, G1272) and 1% amphotericin B solution (Sigma-Aldrich, A2942) at 37° C. in a humidified atmosphere containing 5% CO2. After cells reached 80%˜90% confluency, they were detached and counted using an Invitrogen Countess automated cell counter. Cells with viability over 90% were seeded at a density of 5×10^3 cells per well in 96-well cell culture plates. After overnight culture, the culture medium in each well removed with a pipet. 80 μL of the compound solutions from each well of the 96-well plate prepared above were transferred to this 96-well plate containing the cells, and the plates were incubated for 20 h. After addition of 8 μL of 110 μg/mL resazurin, the plates were incubated for further 3 h at 37° C. in 5% CO2. The fluorescence intensity was measured using a Tecan M200 Infinite Pro microplate reader at excitation 560 nm, emission 590 nm. IC50 were calculated by curve fitting the inhibition values vs. log(concentration) using GraphPad's Prism. The cytotoxicity assays (in triplicate) were repeated twice using freshly prepared cells and compound solutions.

[3] = tested on: K. pneumoniae ATCC 700603; assay: Antibacterial assay, MIC/MBC by broth microdilution (CLSI); assay type: cell-based; conditions: for MIC / MBC (in brackets): K. pneumoniae ATCC 700603; for MIC: repeated twice, a/b = both values
Procedure, shortened: (§1)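 CLSI broth microdilution in cation-adjusted Mueller Hinton broth, log-phase inoculum diluted to 7.5×10^5 CFU/mL before 1:1 mixing with two-fold compound dilutions, triplicates, 18 h at 37 °C static. MIC: >90% inhibition by OD600; MBC: lowest concentration giving no colonies after 5 μL spotted on agar, 18 h, 37 °C.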

S. aureus JE2 (USA300) = assay: as above; assay type: cell-based; conditions: S. aureus JE2 (USA300); for MIC: repeated twice, a/b = both values
Procedure, shortened: as §1

P. aeruginosa NCTC 13437 = assay: as above; assay type: cell-based; conditions: P. aeruginosa NCTC 13437; for MIC: repeated twice, a/b = both values
Procedure, shortened: as §1

E. cloacae NCTC 13405 = assay: as above; assay type: cell-based; conditions: E. cloacae NCTC 13405; for MIC: repeated twice, a/b = both values
Procedure, shortened: as §1

E. coli ATCC 25922 = assay: as above; assay type: cell-based; conditions: for MIC: repeated twice, a/b = both values
Procedure, shortened: as §1

A. baumannii NCTC 13420 = assay: as above; assay type: cell-based; conditions: A. baumannii NCTC 13420; for MIC: repeated twice, a/b = both values
Procedure, shortened: as §1

E. faecalis ATCC 700221 = assay: as above; assay type: cell-based; conditions: for MIC: repeated twice, a/b = both values
Procedure, shortened: as §1

| Compound | MIC (C. albicans ATCC 90028) [µg/mL] | IC50 against A549 cells (A549 cells) [µg/mL] | MIC [1] [µg/mL] | MIC [3] | MBC (in brackets) (S. aureus JE2 (USA300)) | MIC (S. aureus JE2 (USA300)) [μM/mL] | MIC (P. aeruginosa NCTC 13437) | MIC (E. cloacae NCTC 13405) | MBC (in brackets) (E. coli ATCC 25922) | MIC (E. coli ATCC 25922) | MBC (in brackets) (A. baumannii NCTC 13420) | MIC (A. baumannii NCTC 13420) | MBC (in brackets) (E. faecalis ATCC 700221) | MIC (E. faecalis ATCC 700221) [μM/mL] | MBC (in brackets) (P. aeruginosa NCTC 13437) | MBC (in brackets) (E. cloacae NCTC 13405) | Log P [2] | MBC (in brackets) [3] | other results |
| --- | --- | --- | --- | --- | --- | --- | --- | --- | --- | --- | --- | --- | --- | --- | --- | --- | --- | --- | --- |
| CC[P+](CC)(CC)[Au-]1[SH](CC2O[C@H](O[C@H]3OC(COC(C)=O)[C@@H](OC(C)=O)C(OC(C)=O)[C@H]3OC(C)=O)C(OC(C)=O)[C@@H](OC(C)=O)[C@@H]2OC(C)=O)[Au]1[PH](CC)(CC)CC (some centres unmarked) [Compound 7] |  |  |  |  |  |  |  |  |  |  |  |  |  |  |  |  |  |  | antifungal activity in words ([1]; C. neoforman, strain not named): moderate antifungal activity; logP [2]: -0.28 |
| CC[P+](CC)(CC)[Au-][S][C@@H]1O[C@H](COC(C)=O)[C@@H](OC(C)=O)[C@H](OC(C)=O)[C@H]1NC(=O)C(Cl)(Cl)Cl [Compound 4, (3,4,6-Tri-O-acetyl-2-N-trichloroactyl-1-thio-β-D-glucopyranosato) (triethylphosphine) gold (I)] | >32 | 7.9 ± 0.1 | >32 | >328 μM/mL | (0.01) μM/mL | 0.01 | >328 μM/mL | >328 μM/mL | 21 (21) μM/mL | 21 (21) μM/mL | 164 μM/mL | 82 μM/mL | (0.2) μM/mL | 0.08 |  |  |  |  |  |
| CC[P+](CC)(CC)[Au-][S][C@@H]1O[C@H](COC(C)=O)[C@@H](O[C@@H]2O[C@H](COC(C)=O)[C@H](OC(C)=O)[C@H](OC(C)=O)[C@H]2OC(C)=O)[C@H](OC(C)=O)[C@H]1OC(C)=O [Compound 6, [2,3,4,6-Tetra-O-acetyl-β-D-galactopyranosyl (1→4)-2,3,6-tri-O-acetyl-1-thio-β-D-glucopyranosato](triethylphosphine) gold(I)] | >32 | 29.8 ± 3.2 | >32 | >265 μM/mL | (0.1) μM/mL | 0.03 | 132 (132) μM/mL | 265 (265) μM/mL | 33 (33) μM/mL | 33 (33) μM/mL | 132 μM/mL | 66 μM/mL | 0.3 μM/mL | 0.1 | 132 (132) μM/mL | 265 (265) μM/mL |  |  |  |
| (1-Thio-β-D-galatopyranosato)(triethylphosphine) gold(I) [Compound 10] |  | 16.9 ± 0.5 |  | 251 (251) μM/mL | (0.1) μM/mL | 0.02 | 251 (251) μM/mL | 63 (63) μM/mL | 16 (16) μM/mL | 16 (16) μM/mL | 31 (31) μM/mL | 31 (31) μM/mL | (0.5) μM/mL |  | 251 (251) μM/mL | 63 (63) μM/mL | −0.73 | 251 (251) μM/mL |  |
| (1-Thio-β-D-glucopyranosato)(trimethylphosphine) gold(I) [Compound 15] |  | 52.2 ± 1.0 |  | 34 (34) μM/mL | (1) μM/mL |  | >547 μM/mL | 4/9 | 9 (9) μM/mL | 9 (9) μM/mL | 17 μM/mL | 17/4 | (0.5) μM/mL |  |  | 17 μM/mL | −1.63 | 34 (34) μM/mL |  |
| (4-Aminobenzenethiolato)(triethylphosphine) gold(I) [Compound 20] |  | 6.5 ± 1.1 |  | 36 (36) μM/mL | 2 (0.07) μM/mL |  | 146 (146) μM/mL | 36 (36) μM/mL | 9 (9) μM/mL | 9 (9) μM/mL | 18 (18) μM/mL | 18 (18) μM/mL | (0.1) μM/mL | 0.02 | 146 (146) μM/mL | 36 (36) μM/mL | 1.36 | 36 (36) μM/mL | MIC or MIC/MBC, fold lower than auranofin ([3]; K. pneumoniae): 10 fold; MIC/MBC ([3]; K. pneumoniae): 36 µM |
